Activity calls are given as the source filed them. No cut-off for these calls is given here.
Tests used:
RAW264.7 [1] = assay: Anti-inflammatory activity in LPS-induced mouse RAW264.7 cells; assay type: functional, cell-based
RAW264.7 [2] = assay: Cytotoxicity against mouse RAW264.7 cells at 20 uM incubated for 24 hrs by CCK-8 assay; assay type: toxicity, cell-based; conditions: raw264.7, 24 h
[3] = biological target: Protein cereblon/Prostaglandin G/H synthase 2 (Mus musculus) (UniProt Q05769+Q8C7D2); assay: PROTAC activity at COX-2/CRBN in mouse RAW264.7 cells assessed as downregulation of COX2 expression measured after 24 hrs by Western blot analysis; assay type: cell-based; conditions: dose 5-20 µM
Chain of Protein cereblon/Prostaglandin G/H synthase 2 (Mus musculus) (Q05769 whole entry, looked up): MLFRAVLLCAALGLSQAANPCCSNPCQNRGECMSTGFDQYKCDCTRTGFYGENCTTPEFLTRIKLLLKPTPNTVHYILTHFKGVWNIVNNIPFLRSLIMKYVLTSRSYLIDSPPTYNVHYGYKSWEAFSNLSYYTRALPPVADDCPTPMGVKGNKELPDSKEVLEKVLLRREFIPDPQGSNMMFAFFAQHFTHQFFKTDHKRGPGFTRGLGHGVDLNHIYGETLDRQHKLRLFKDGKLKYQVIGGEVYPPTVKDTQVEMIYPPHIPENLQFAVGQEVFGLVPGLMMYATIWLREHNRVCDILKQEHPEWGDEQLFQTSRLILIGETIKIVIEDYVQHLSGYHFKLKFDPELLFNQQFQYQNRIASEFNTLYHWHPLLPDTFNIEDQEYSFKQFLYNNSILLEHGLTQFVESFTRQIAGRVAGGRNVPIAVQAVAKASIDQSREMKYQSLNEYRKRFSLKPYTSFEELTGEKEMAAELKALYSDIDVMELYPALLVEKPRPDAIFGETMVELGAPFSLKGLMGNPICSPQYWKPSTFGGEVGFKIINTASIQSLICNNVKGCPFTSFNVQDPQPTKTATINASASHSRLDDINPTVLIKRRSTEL
Chain of Protein cereblon/Prostaglandin G/H synthase 2 (Mus musculus) (Q8C7D2 whole entry, looked up): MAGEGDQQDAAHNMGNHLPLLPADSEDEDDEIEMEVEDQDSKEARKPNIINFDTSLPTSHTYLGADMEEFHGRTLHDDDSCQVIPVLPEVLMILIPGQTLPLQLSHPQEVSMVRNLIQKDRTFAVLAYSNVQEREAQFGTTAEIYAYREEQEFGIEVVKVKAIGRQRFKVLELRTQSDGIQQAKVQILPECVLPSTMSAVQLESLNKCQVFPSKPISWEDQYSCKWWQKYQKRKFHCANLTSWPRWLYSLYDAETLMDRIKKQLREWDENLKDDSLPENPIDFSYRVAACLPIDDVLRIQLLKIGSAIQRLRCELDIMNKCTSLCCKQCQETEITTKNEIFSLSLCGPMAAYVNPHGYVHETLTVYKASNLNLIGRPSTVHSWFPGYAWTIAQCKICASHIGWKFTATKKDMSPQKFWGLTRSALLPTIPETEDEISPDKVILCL

RAW264.7 [4] = assay: PROTAC activity at COX-2/VHL in mouse RAW264.7 cells assessed as downregulation of COX2 expression measured after 24 hrs by Western blot analysis; assay type: cell-based; conditions: dose 5-20 µM
[5] = biological target: T1, Prostaglandin G/H synthase 2 (Homo sapiens, UniProt P35354); assay: Inhibition of human recombinant COX-2 using S0168-2 as substrate preincubated for 10 mins followed by substrate addition and measured after 10 mins by microplate reader analysis
T1 sequence (P35354 whole entry): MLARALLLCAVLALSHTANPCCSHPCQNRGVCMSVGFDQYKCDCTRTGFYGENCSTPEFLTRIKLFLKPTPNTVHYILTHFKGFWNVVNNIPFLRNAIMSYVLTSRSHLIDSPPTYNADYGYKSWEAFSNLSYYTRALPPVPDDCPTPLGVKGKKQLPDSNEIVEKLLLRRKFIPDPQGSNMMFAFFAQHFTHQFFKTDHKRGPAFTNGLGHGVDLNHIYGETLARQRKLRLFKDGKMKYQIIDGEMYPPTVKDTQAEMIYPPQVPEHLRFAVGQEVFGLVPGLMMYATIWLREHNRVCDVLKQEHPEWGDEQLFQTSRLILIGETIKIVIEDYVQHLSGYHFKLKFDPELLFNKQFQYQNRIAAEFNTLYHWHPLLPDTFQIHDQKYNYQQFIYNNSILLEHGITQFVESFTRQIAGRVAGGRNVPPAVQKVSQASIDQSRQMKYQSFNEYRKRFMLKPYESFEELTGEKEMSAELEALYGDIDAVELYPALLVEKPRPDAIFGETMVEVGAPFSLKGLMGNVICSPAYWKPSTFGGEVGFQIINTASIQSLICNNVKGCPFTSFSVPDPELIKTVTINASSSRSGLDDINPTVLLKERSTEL

Activity [3] | IC50 [5] | Compound | Activity (RAW264.7 [1]) | Activity (RAW264.7 [2]) | Activity (RAW264.7 [4])
Dose-dependent-effect |  | O=C1CCC(N2C(=O)c3cccc(NC4CCC(NC(=O)CCCCn5cc(CCC(=O)Oc6ccccc6C(=O)O)nn5)CC4)c3C2=O)C(=O)N1 (configuration not stated) | Active | Non-toxic | 
 | 323 µM | Cc1ncsc1-c1ccc([C@@H](C)NC(=O)[C@@H]2C[C@@H](O)CN2C(=O)[C@@H](NC(=O)CCCCn2cc(CCC(=O)Oc3ccccc3C(=O)O)nn2)C(C)(C)C)cc1 | Active | Non-toxic | Dose-dependent-effect
